The record followed here is patent US20240024488A1, “COMPOUNDS AND USES THEREOF” (Foghorn Therapeutics Inc., priority 2020, published 2024).

The target in one experiment is T1, HiBit-BRM fusion protein (Homo sapiens, UniProt P51531).
T1 construct: expressed in transfected cells
In words: HiBiT-BRM cell-based degradation assay (Nano-Glo HiBiT Lytic Detection, 24 h). To be noted: HeLa cell line expressing HiBiT-BRM; for DC50: read-out: BRM HiBit Degradation IC50. The gist of the method: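 HeLa cells stably expressing HiBiT-BRM were dosed with compounds (10-point 3-fold dilutions, 30 μM final top dose, duplicate) for 24 h. HiBiT signal was read by lytic LgBiT complementation luminescence. Percent degradation was normalised to DMSO (high control) and 2 μM of a reference BRM/BRG1 degrader (low control).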
A general note: The HiBiT peptide binds its large partner to form an active luciferase.

The target in experiment [1] is T2, HiBit-BRG1 fusion protein (Homo sapiens, UniProt P51532).
T2 construct: expressed in transfected cells
T2 sequence (P51532 whole entry, the tested form may be a part): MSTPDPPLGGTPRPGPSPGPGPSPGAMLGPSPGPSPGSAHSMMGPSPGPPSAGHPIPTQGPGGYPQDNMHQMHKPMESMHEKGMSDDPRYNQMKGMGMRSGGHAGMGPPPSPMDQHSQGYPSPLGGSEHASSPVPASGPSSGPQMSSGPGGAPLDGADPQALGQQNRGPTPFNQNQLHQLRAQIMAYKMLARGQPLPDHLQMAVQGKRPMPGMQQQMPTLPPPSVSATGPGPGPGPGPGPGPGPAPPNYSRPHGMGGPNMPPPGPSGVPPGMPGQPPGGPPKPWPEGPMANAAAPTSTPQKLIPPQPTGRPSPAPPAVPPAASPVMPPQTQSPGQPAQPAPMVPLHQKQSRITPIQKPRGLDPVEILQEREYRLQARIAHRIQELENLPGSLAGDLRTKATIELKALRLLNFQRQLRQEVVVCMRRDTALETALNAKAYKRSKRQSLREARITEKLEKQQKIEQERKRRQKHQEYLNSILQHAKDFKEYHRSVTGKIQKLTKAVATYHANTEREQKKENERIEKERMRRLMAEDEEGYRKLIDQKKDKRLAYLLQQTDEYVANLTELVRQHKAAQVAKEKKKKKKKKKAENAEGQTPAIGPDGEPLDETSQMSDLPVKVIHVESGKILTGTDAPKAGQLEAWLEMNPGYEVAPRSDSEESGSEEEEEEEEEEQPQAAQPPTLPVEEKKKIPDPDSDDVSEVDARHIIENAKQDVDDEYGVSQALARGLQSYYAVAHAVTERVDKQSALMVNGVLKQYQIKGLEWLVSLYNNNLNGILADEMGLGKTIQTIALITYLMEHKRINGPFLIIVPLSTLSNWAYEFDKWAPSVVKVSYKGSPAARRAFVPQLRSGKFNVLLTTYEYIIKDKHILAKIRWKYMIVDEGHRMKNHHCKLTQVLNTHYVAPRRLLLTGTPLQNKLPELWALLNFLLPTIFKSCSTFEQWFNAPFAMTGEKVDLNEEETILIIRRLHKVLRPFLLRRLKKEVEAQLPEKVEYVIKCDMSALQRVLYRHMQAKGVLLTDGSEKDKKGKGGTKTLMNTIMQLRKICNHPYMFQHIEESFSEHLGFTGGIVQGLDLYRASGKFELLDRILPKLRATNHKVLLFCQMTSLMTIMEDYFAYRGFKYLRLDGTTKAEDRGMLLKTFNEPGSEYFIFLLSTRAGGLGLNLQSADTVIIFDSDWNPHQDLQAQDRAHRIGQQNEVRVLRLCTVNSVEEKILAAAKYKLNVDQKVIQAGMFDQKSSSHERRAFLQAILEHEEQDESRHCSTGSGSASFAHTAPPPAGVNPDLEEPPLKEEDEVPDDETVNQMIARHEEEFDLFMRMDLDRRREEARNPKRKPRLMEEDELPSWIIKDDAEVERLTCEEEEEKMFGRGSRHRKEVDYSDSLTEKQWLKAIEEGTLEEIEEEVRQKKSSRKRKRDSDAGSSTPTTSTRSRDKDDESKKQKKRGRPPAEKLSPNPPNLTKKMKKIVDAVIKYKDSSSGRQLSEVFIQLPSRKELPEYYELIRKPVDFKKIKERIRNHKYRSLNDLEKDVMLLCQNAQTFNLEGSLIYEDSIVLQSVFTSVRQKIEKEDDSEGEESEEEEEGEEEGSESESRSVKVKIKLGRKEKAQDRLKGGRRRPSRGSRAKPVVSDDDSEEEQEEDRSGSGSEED
In words: HiBiT-BRG1 cell-based degradation assay (Nano-Glo HiBiT Lytic Detection, 24 h). The settings on record: HeLa cell line expressing HiBit-BRG1 and LgBit; for Dmax: read-out: BRG1 HiBit Degradation Maximum (%); for DC50: read-out: BRMG1 HiBit Degradation IC50. Put shortly:
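Luminescence from reconstituted NanoBiT luciferase after lytic detection served as read-out of remaining HiBit-BRG1 in stable HeLa cells, which also express LgBit. Cells were seeded at 5000 per well and incubated with compound for 24 h. DMSO and a 2 μM known degrader defined the control range.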

T1 sequence (P51531 whole entry, the tested form may be a part): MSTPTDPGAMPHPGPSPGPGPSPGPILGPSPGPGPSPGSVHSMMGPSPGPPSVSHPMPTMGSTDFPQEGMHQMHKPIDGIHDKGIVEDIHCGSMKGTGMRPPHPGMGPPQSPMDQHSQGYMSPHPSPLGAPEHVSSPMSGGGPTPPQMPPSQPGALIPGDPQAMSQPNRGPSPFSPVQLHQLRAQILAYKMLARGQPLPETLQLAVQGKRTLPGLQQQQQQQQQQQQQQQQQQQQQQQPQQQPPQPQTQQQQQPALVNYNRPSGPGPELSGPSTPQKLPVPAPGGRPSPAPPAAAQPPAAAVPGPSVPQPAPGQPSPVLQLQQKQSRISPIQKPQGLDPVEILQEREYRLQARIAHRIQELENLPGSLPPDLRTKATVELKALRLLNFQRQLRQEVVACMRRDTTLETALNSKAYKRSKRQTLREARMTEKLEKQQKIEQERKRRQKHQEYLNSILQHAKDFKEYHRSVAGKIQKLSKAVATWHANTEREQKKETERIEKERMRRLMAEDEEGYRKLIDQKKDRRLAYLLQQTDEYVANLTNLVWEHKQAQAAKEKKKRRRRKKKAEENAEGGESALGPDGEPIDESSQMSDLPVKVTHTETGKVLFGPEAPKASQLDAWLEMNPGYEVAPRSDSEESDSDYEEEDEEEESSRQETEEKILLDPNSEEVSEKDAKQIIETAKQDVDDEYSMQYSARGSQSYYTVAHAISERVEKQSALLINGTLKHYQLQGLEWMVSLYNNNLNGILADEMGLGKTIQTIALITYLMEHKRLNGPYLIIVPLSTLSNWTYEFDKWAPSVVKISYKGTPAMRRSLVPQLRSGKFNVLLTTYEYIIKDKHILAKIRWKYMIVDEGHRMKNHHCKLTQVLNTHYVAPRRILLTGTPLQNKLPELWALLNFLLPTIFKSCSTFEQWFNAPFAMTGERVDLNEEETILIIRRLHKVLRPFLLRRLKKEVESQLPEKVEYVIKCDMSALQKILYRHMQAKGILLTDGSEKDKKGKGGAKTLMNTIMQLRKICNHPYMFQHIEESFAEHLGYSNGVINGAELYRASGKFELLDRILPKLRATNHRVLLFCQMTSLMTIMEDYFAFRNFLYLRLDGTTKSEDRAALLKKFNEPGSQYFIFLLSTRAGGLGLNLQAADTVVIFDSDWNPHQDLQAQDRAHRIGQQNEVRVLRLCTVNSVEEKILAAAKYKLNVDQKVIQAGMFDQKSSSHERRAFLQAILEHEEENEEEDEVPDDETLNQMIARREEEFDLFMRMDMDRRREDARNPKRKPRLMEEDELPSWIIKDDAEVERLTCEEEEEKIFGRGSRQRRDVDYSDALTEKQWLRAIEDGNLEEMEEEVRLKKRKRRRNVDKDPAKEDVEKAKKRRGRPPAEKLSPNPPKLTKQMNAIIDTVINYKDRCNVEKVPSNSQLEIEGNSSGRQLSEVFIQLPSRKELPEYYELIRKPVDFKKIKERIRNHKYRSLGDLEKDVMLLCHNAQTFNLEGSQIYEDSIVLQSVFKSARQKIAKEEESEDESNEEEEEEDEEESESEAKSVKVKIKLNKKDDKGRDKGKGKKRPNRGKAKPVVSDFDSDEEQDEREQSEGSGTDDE

Take `O=C1CCC(N2C(=O)c3ccc(NCCCCCCCCCCC(=O)N4CC(c5cc6cc(-c7ccccc7O)nnc6[nH]5)C4)cc3C2=O)C(=O)N1` (stereo not shown) [Compound 32, 2-(2,6-dioxopiperidin-3-yl)-5-((11-(3-(3-(2-hydroxyphenyl)-7H-pyrrolo[2,3-c]pyridazin-6-yl)azetidin-1-yl)-11-oxoundecyl)amino)isoindoline-1,3-dione]: the “BRM HiBit Degradation Maximum (%)” value on HiBit-BRM fusion protein is “C (“C” indicates maximum degradation < 50%)”. In experiment [1], the Dmax was below 50%.

For `Cc1ncsc1-c1ccc([C@H](C)NC(=O)[C@@H]2C[C@@H](O)CN2C(=O)[C@@H](c2onc(OCCN3CC(c4cc5cc(-c6ccccc6O)nnc5[nH]4)C3)c2Cl)C(C)C)cc1` (racemic) [Compound 266, (2S,4R)-1-((R)-2-(4-chloro-3-(2-(3-(3-(2-hydroxyphenyl)-7H-pyrrolo[2,3-c]pyridazin-6-yl)azetidin-1-yl)ethoxy)isoxazol-5-yl)-3-methylbutanoyl)-4-hydroxy-N-((S)-1-(4-(4-methylthiazol-5-yl)phenyl)ethyl)pyrrolidine-2-carboxamide], on HiBit-BRM fusion protein, the “BRM HiBit Degradation Maximum (%)” value is reported as “A (“A” indicates maximum degradation ≥ 75%)” and the DC50 is above 10 nM. In experiment [1], the Dmax was above 75% and the DC50 is above 100 nM.

As to `Cc1ncsc1-c1ccc([C@H](C)NC(=O)[C@@H]2C[C@@H](O)CN2C(=O)[C@@H](c2cc(OCCN3CCN(CCN4CC(c5cc6cc(-c7ccccc7O)nnc6[nH]5)C4)CC3)no2)C(C)C)cc1` (racemic) [Compound 58, (2S,4R)-4-hydroxy-1-((R)-2-(3-(2-(4-(2-(3-(3-(2-hydroxyphenyl)-7H-pyrrolo[2,3-c]pyridazin-6-yl)azetidin-1-yl)ethyl)piperazin-1-yl)ethoxy)isoxazol-5-yl)-3-methylbutanoyl)-N-((S)-1-(4-(4-methylthiazol-5-yl)phenyl)ethyl)pyrrolidine-2-carboxamide], on HiBit-BRM fusion protein, the “BRM HiBit Degradation Maximum (%)” value is given as “A (“A” indicates maximum degradation ≥ 75%)” and the DC50 is above 100 nM. Also, in experiment [1], the Dmax was above 75% and the DC50 was above 100 nM.

Turning to `Cc1ncsc1-c1ccc([C@H](C)NC(=O)[C@@H]2C[C@@H](O)CN2C(=O)C(c2cc(N3CCC(C(=O)N4CC(c5cc6cc(-c7ccccc7O)nnc6[nH]5)C4)CC3)no2)C(C)C)cc1` (mixture of isomers) [Compound 274, (2S,4R)-4-hydroxy-1-((S)-2-(3-(4-(3-(3-(2-hydroxyphenyl)-7H-pyrrolo[2,3-c]pyridazin-6-yl)azetidine-1-carbonyl)piperidin-1-yl)isoxazol-5-yl)-3-methylbutanoyl)-N-((S)-1-(4-(4-methylthiazol-5-yl)phenyl)ethyl)pyrrolidine-2-carboxamide], at HiBit-BRM fusion protein, the “BRM HiBit Degradation Maximum (%)” value was “A (“A” indicates maximum degradation ≥ 75%)” and the DC50 was above 10 nM. For the same compound, in experiment [1], the Dmax is above 75% and the DC50 is above 100 nM.

Take `Cc1ncsc1-c1ccc([C@H](C)NC(=O)[C@@H]2C[C@@H](O)CN2C(=O)[C@@H](c2cc(OCCN3CC(c4[nH]c5nnc(-c6ccccc6O)cc5c4Cl)C3)no2)C(C)C)cc1` (racemic) [Compound 238, (2S,4R)-1-[(2R)-2-[3-(2-{3-[5-chloro-3-(2-hydroxyphenyl)-7H-pyrrolo[2,3-c]pyridazin-6-yl]azetidin-1-yl}ethoxy)-1,2-oxazol-5-yl]-3-methylbutanoyl]-4-hydroxy-N-[(1S)-1-[4-(4-methyl-1,3-thiazol-5-yl)phenyl]ethyl]pyrrolidine-2-carboxamide]: on HiBit-BRM fusion protein, the “BRM HiBit Degradation Maximum (%)” value was “A (“A” indicates maximum degradation ≥ 75%)” and the DC50 is above 10 nM. Further, the Dmax in experiment [1] is below 50%.

`Cc1ncsc1-c1ccc([C@H](C)NC(=O)[C@@H]2C[C@@H](O)CN2C(=O)[C@@H](c2cc(OCCN(C)[C@H]3CCc4[nH]c5nnc(-c6ccccc6O)cc5c4C3)no2)C(C)C)cc1` (single isomer, unassigned) [Compound 165]: on HiBit-BRM fusion protein, the “BRM HiBit Degradation Maximum (%)” value was “A (“A” indicates maximum degradation ≥ 75%)” and the DC50 is above 100 nM. The Dmax in experiment [1] was below 50%.

Regarding `Cc1ncsc1-c1ccc(CNC(=O)[C@@H]2C[C@@H](O)CN2C(=O)[C@@H](NC(=O)CCCNC(=O)[C@@H]2CCc3[nH]c4nnc(-c5ccccc5O)cc4c3C2)C(C)(C)C)cc1` (single isomer, unassigned) [Compound 196], on HiBit-BRM fusion protein, the “BRM HiBit Degradation Maximum (%)” value was “B (“B” indicates maximum degradation ≥ 50%)” and the DC50 was above 100 nM. The Dmax in experiment [1] is below 50%.

Take `Cc1ncsc1-c1ccc([C@H](C)NC(=O)[C@@H]2C[C@@H](O)CN2C(=O)[C@@H](c2cc(N3CCC(CN4CC5(Cc6cc(-c7ccccc7O)nnc6N5)C4)CC3)no2)C(C)C)cc1` (racemic) [Compound 96, (2S,4R)-4-hydroxy-1-((R)-2-(3-(4-((3′-(2-hydroxyphenyl)-5′,7′-dihydrospiro[azetidine-3,6′-pyrrolo[2,3-c]pyridazin]-1-yl)methyl)piperidin-1-yl)isoxazol-5-yl)-3-methylbutanoyl)-N-((S)-1-(4-(4-methylthiazol-5-yl)phenyl)ethyl)pyrrolidine-2-carboxamide]: on HiBit-BRM fusion protein, the “BRM HiBit Degradation Maximum (%)” value was “A (“A” indicates maximum degradation ≥ 75%)” and the DC50 is above 10 nM. In addition, in experiment [1], the Dmax is above 50% and the DC50 is above 100 nM.

Consider `Cc1ncsc1-c1ccc(CNC(=O)[C@@H]2C[C@@H](O)CN2C(=O)[C@@H](NC(=O)CCC(=O)N[C@H]2CCc3[nH]c4nnc(-c5ccccc5O)cc4c3C2)C(C)(C)C)cc1` (relative stereo) [Compound 174, N1-((S)-1-((2S,4R)-4-hydroxy-2-((4-(4-methylthiazol-5-yl)benzyl)carbamoyl)pyrrolidin-1-yl)-3,3-dimethyl-1-oxobutan-2-yl)-N4-((S)-3-(2-hydroxyphenyl)-6,7,8,9-tetrahydro-5H-pyridazino[3,4-b]indol-6-yl)succinamide], for which, on HiBit-BRM fusion protein, the “BRM HiBit Degradation Maximum (%)” value is reported as “B (“B” indicates maximum degradation ≥ 50%)” and the DC50 was above 1000 nM. For the same compound, the Dmax in experiment [1] is below 50%.

`Cc1ncsc1-c1ccc([C@H](C)NC(=O)[C@@H]2C[C@@H](O)CN2C(=O)[C@H](c2cc(N3CC(CN4CC(c5cc6cc(-c7ccccc7O)nnc6[nH]5)C4)C3)no2)C(C)C)cc1` (single isomer, unassigned) [Compound 162]: the “BRM HiBit Degradation Maximum (%)” value on HiBit-BRM fusion protein was “C (“C” indicates maximum degradation < 50%)”. Besides, in experiment [1], the Dmax was above 50% and the DC50 was above 1000 nM.

Consider `Cc1ncsc1-c1ccc([C@H](C)NC(=O)[C@@H]2C[C@@H](O)CN2C(=O)[C@@H](c2cc(OCCNC3CC[C@]34C[C@H](c3cc5cc(-c6ccccc6O)nnc5[nH]3)C4)no2)C(C)C)cc1` (mixture of isomers) [Compound 132, (2S,4R)-4-hydroxy-1-((R)-2-(3-(2-(((1S,4s,6S)-6-(3-(2-hydroxyphenyl)-7H-pyrrolo[2,3-c]pyridazin-6-yl)spiro[3.3]heptan-1-yl)amino)ethoxy)isoxazol-5-yl)-3-methylbutanoyl)-N-((S)-1-(4-(4-methylthiazol-5-yl)phenyl)ethyl)pyrrolidine-2-carboxamide], for which, at HiBit-BRM fusion protein, the “BRM HiBit Degradation Maximum (%)” value is listed as “A (“A” indicates maximum degradation ≥ 75%)” and the DC50 was above 10 nM. In addition, the Dmax in experiment [1] is below 50%.

`O=C1CCC(N2C(=O)c3ccc(NCCOCCOCCC(=O)N4CC(c5cc6cc(-c7ccccc7O)nnc6[nH]5)C4)cc3C2=O)C(=O)N1` (stereo not shown) [Compound 29, 2-(2,6-dioxopiperidin-3-yl)-5-((2-(2-(3-(3-(3-(2-hydroxyphenyl)-7H-pyrrolo[2,3-c]pyridazin-6-yl)azetidin-1-yl)-3-oxopropoxy)ethoxy)ethyl)amino)isoindoline-1,3-dione]: on HiBit-BRM fusion protein, the “BRM HiBit Degradation Maximum (%)” value is listed as “C (“C” indicates maximum degradation < 50%)”. The Dmax in experiment [1] was below 50%.

On to `Cc1ncsc1-c1ccc([C@H](C)NC(=O)[C@@H]2C[C@@H](O)CN2C(=O)[C@@H](c2cc(OCCN3CC(c4[nH]c5nnc(-c6cc(F)cc(Cl)c6O)cc5c4C)C3)no2)C(C)C)cc1` (racemic) [Compound 129, (2S,4R)-1-((R)-2-(3-(2-(3-(3-(3-chloro-5-fluoro-2-hydroxyphenyl)-5-methyl-7H-pyrrolo[2,3-c]pyridazin-6-yl)azetidin-1-yl)ethoxy)isoxazol-5-yl)-3-methylbutanoyl)-4-hydroxy-N-((S)-1-(4-(4-methylthiazol-5-yl)phenyl)ethyl)pyrrolidine-2-carboxamide], for which, at HiBit-BRM fusion protein, the “BRM HiBit Degradation Maximum (%)” value was “A (“A” indicates maximum degradation ≥ 75%)” and the DC50 is above 10 nM. In experiment [1], the Dmax is above 50% and the DC50 is above 100 nM.

Regarding `Cc1ncsc1-c1ccc(CNC(=O)[C@@H]2C[C@@H](O)CN2C(=O)[C@@H](NC(=O)CCCCC(=O)N[C@@H]2CCc3[nH]c4nnc(-c5ccccc5O)cc4c3C2)C(C)(C)C)cc1` [Compound 170, N1-((S)-1-((2S,4R)-4-hydroxy-2-((4-(4-methylthiazol-5-yl)benzyl)carbamoyl)pyrrolidin-1-yl)-3,3-dimethyl-1-oxobutan-2-yl)-N6-((R)-3-(2-hydroxyphenyl)-6,7,8,9-tetrahydro-5H-pyridazino[3,4-b]indol-6-yl)adipamide], the “BRM HiBit Degradation Maximum (%)” value at HiBit-BRM fusion protein was “C (“C” indicates maximum degradation < 50%)”. Further, in experiment [1], the Dmax was below 50%.

With `Cc1ncsc1C12CC(CNC(=O)[C@@H]3C[C@@H](O)CN3C(=O)[C@H](c3cc(OCCN4CC(c5cc6cc(-c7ccccc7O)nnc6[nH]5)C4)no3)C(C)C)(C1)C2` (single isomer, unassigned) [Compound 114], on HiBit-BRM fusion protein, the “BRM HiBit Degradation Maximum (%)” value was “C (“C” indicates maximum degradation < 50%)”. The Dmax in experiment [1] is below 50%.
